Like-named read-outs stand apart in the source and are kept apart here. No end group written: not given here.
Biological target: T1, ζ-opioid receptor (Homo sapiens, UniProt Q9NZT2)
T1 sequence (Q9NZT2 1-677): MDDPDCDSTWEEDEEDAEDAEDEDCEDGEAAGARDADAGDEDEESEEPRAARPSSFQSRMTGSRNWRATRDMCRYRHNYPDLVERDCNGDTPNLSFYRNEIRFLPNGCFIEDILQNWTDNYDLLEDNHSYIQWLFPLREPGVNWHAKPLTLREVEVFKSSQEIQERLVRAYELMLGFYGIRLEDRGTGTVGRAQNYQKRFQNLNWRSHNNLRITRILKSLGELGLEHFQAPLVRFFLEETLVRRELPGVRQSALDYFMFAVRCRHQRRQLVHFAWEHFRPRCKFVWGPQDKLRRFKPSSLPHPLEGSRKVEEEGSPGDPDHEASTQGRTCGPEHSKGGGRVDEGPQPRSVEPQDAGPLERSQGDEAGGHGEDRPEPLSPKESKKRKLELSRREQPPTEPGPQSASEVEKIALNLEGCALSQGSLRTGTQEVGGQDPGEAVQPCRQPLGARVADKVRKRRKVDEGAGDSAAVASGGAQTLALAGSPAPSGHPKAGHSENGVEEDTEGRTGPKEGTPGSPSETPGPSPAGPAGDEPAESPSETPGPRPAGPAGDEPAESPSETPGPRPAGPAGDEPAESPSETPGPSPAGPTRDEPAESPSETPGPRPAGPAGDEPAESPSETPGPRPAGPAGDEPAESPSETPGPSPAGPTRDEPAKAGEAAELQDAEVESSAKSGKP
Assay: Competition for binding of [3H][Met5]enkephalin (4.0 nM) in nuclear homogenates of HT-29 human colon tumors
Set-up: from tissue; host or cells: HT-29 human colon tumor xenografts grown in athymic nude mice; nuclear (P1) and other subcellular fractions

Compound	ability to compete in displacing [3H]-[Met5]-enkephalin binding	IC50	Ki	further results
CSCC[C@H](NC(=O)[C@H](Cc1ccc(OS(=O)(=O)O)cc1)NC(=O)[C@@H](N)CC(=O)O)C(=O)NCC(=O)N[C@@H](Cc1c[nH]c2ccccc12)C(=O)N[C@@H](CCSC)C(=O)N[C@@H](CC(=O)O)C(=O)N[C@@H](Cc1ccccc1)C(N)=O [CCK-8, cholecystokinin octapeptide]	exhibit ability to compete			
CC[C@]12CCN(CC3CC3)[C@H](C(=O)c3ccc(O)cc31)[C@@H]2C [EKC, ethylketocyclazocine]	not competitive	> 10000 µM	> 10000 µM	
CSCC[C@H](NC(=O)[C@H](Cc1c[nH]c2ccccc12)NC(=O)CNC(=O)[C@H](Cc1ccc(O)cc1)NC(=O)[C@H](C)NC(=O)[C@H](CCC(=O)O)NC(=O)[C@H](CCC(=O)O)NC(=O)[C@H](CCC(=O)O)NC(=O)[C@H](CCC(=O)O)NC(=O)[C@H](CCC(=O)O)NC(=O)[C@H](CC(C)C)NC(=O)[C@H](Cc1c[nH]c2ccccc12)NC(=O)[C@@H]1CCCN1C(=O)CNC(=O)[C@@H]1CCC(=O)N1)C(=O)N[C@@H](CC(=O)O)C(=O)N[C@@H](Cc1ccccc1)C(N)=O [Gastrin]		0.0775 ± 0.0075 µM	0.0596 ± 0.0058 µM	
C[C@H](N)C(=O)NCC(=O)N[C@H]1CSSC[C@@H](C(=O)O)NC(=O)[C@H](CO)NC(=O)[C@H]([C@@H](C)O)NC(=O)[C@H](Cc2ccccc2)NC(=O)[C@H]([C@@H](C)O)NC(=O)[C@H](CCCCN)NC(=O)[C@H](Cc2c[nH]c3ccccc23)NC(=O)[C@H](Cc2ccccc2)NC(=O)[C@H](Cc2ccccc2)NC(=O)[C@H](CC(N)=O)NC(=O)[C@H](CCCCN)NC1=O [Somatostatin]		> 10 µM	> 10 µM	
CC[C@H](C)[C@H](NC(=O)[C@H](C)NC(=O)[C@H](CC(N)=O)NC(=O)[C@H](CCCCN)NC(=O)[C@H](Cc1ccccc1)NC(=O)[C@H](CC(C)C)NC(=O)[C@@H](NC(=O)[C@@H](NC(=O)[C@H](CC(C)C)NC(=O)[C@@H]1CCCN1C(=O)[C@@H](NC(=O)[C@H](CCC(N)=O)NC(=O)[C@H](CO)NC(=O)[C@H](CCCCN)NC(=O)[C@H](CCC(=O)O)NC(=O)[C@H](CO)NC(=O)[C@@H](NC(=O)[C@H](CCSC)NC(=O)[C@H](Cc1ccccc1)NC(=O)CNC(=O)CNC(=O)[C@@H](N)Cc1ccc(O)cc1)[C@@H](C)O)[C@@H](C)O)C(C)C)[C@@H](C)O)C(=O)N[C@H](C(=O)N[C@@H](CCCCN)C(=O)N[C@@H](CC(N)=O)C(=O)N[C@@H](C)C(=O)N[C@@H](Cc1ccc(O)cc1)C(=O)N[C@@H](CCCCN)C(=O)N[C@@H](CCCCN)C(=O)NCC(=O)N[C@@H](CCC(=O)O)C(=O)O)[C@@H](C)CC [β-Endorphin, β-endorphin]				less potent than [Met5]-enkephalin in displacing radiolabeled [Met5]-enkephalin binding: 4.3 fold
SKF-10,047	not competitive			IC50 (read-out: IC50): 0.795 ± 0.005 µM; Ki (read-out: KI): 0.612 ± 0.004 µM
YGGFMRGL [[Met^5]enkephalin-Arg^6-Gly^7-Leu^8, [Met^5,Arg^6,Gly^7,Leu^8]-enkephalin]		0.0375 ± 0.0075 µM	0.0289 ± 0.0058 µM	
dynorphin A 1-8 [Dynorphin A-(1-8)]	not competitive			

— patent publication US6737397B1, “Control of cancer growth through the interaction of [MET5]-enkephalin and the zeta receptor” (The Penn State Research Foundation, priority 1996, dated 2004)
